Our source for the melting point values is US6583154B1, “Compounds and methods which modulate feeding behavior and related diseases” (Amgen Inc., priority 1998, dated 2003).

The term melting point denotes the temperature, or range, at which the solid turns liquid.

Where a name gives a salt, the structure may show the parent alone.

As to `Cc1nc(N2CCCCC2)c2[nH]c(-c3ccccc3)cc2n1` (as salt: hydrochloride) [Example 35, 2-methyl-6-phenyl-4-(piperidinyl)pyrrolo[3,2-d]pyrimidine], the melting point was 293 to 294 °C.
In the case of `Cc1nc(N2CCCCC2CCO)c2[nH]c(-c3ccccc3)cc2n1` (stereo not drawn) (as salt: hydrochloride) [Example 62, 2-Methyl-6-phenyl-4-(2-piperidineethanolyl)pyrrolo(3,2-d)pyrimidine Hydrochloride] it was 273 to 273.5 °C; in that of `Cc1nc(N2CC=CCC2)c2[nH]c(-c3ccccc3)cc2n1` (as salt: hydrochloride) [Example 65, 2-Methyl-6-phenyl-4-(1,2,3,6-tetrahydropyridinyl)pyrrolo[3,2-d]pyrimidine Hydrochloride], 278 to 279 °C.
`Cc1nc(N2CCOCC2)c2[nH]c(-c3ccc(F)c(F)c3)cc2n1` (as salt: hydrochloride) [Example 141, 4-[6-(3,4-Difluorophenyl)-2-methylpyrrolo[2,3-e]pyrimidin-4-yl]morpholine Hydrochloride] registered a melting point of over 280 °C.
In the case of `Cc1nc(N2[C@H](C)CCC[C@@H]2C)c2[nH]c(-c3ccccc3)cc2n1` (as salt: hydrochloride) [Example 185, 4-((6S, 2R)-2,6-Dimethyl)-2-methyl-6-phenylpyrrolo[3,2-d]pyrimidine Hydrochloride], the melting point is over 270 °C.
Molecule `c1ccc(-c2cc3nc(N4CCCCC4)nc(N4CCCCC4)c3[nH]2)cc1` (as salt: hydrochloride) [Example 208, 6-Phenyl-2,4-dipiperidylpyrrolo[3,2-d]pyrimidine Hydrochloride] displayed a melting point of over 272 °C.
Next, `Cc1nc(N2CCCCC2)c2[nH]c(-c3ccccc3)c(Br)c2n1` (as salt: hydrochloride) [Example 211, 7-Bromo-2-methyl-6-phenyl-4-piperidylpyrrolo[3,2-d]pyrimidine Hydrochloride]: 239 to 240 °C; `Cc1nc(N2CCCCC2)c2[nH]c(-c3ccc(-c4ccccc4)cc3)cc2n1.Cl` (hydrate or solvate): over 280 °C.
With `Cc1nc(N2CCCCC2)c2[nH]c(-c3c(F)cccc3F)cc2n1.Cl` (hydrate or solvate), the melting point was over 280 °C.
`Cc1nc(N2CCCCC2)c2[nH]c(-c3ccc(Cl)c(Cl)c3Cl)cc2n1.Cl` (hydrate or solvate) yielded a melting point of 264 to 266 °C.
The molecule `Cc1nc(N2CCCCC2)c2[nH]c(-c3ccccc3C(F)(F)F)cc2n1.Cl` (hydrate or solvate) gave a melting point of over 280 °C.
As for `Cc1nc(N2CCCCC2)c2[nH]c(-c3cc(F)cc(F)c3)cc2n1.Cl` (hydrate or solvate), the melting point was over 280 °C.
In the case of `Cc1nc(N2CCCCC2)c2[nH]c(-c3ccc(O)c(F)c3)cc2n1.Cl` (hydrate or solvate) it was over 280 °C.
Turning to `Cc1nc(N2CCCCC2)c2[nH]c(-c3ccc4c(c3)CCCC4)cc2n1.Cl` (hydrate or solvate), the melting point was in the range of 175 to 177 °C.
In the case of `Cc1nc(N2CCCCC2)c2[nH]c(-c3cnn(-c4ccccc4)c3C)cc2n1.Cl` (hydrate or solvate), the melting point is over 280 °C.
In the case of `Cc1nc(N2CCCCC2)c2[nH]c(-c3sc(C)nc3C)cc2n1.Cl` (hydrate or solvate) it was 272 to 273.5 °C; in that of `Cc1nc(N2CCCCC2)c2[nH]c(-c3ccc(Cl)c(Cl)c3)c(C)c2n1.Cl` (hydrate or solvate), over 280 °C.
Regarding `Cc1nc(N2CCCCC2)c2[nH]c(-c3cc(F)cc(F)c3)c(C)c2n1.Cl` (hydrate or solvate), the melting point is 242 to 245 °C.
As to `COc1cccc(-c2cc3nc(C)nc(N4CCCCC4)c3[nH]2)c1.Cl` (hydrate or solvate), the melting point was 241 to 243 °C.
As for `Cc1nc(N2CCCCC2)c2[nH]c(-c3cccc(O)c3)cc2n1.Cl` (hydrate or solvate), the melting point is over 280 °C.
In the case of `CCc1c(-c2ccccc2)[nH]c2c(N3CCCCC3)nc(C)nc12.Cl` (hydrate or solvate), the melting point lay in the range of 261 to 263 °C.
`Cc1nc(N2CCCCC2C)c2[nH]c(-c3ccc(F)cc3)cc2n1.Cl` (stereo not drawn) (hydrate or solvate) showed a melting point of 274 to 276 °C.
With `Cc1nc(N2CCCCC2)c2[nH]c(-c3ccc(Cl)cc3)c(N3CCCC3)c2n1.Cl` (hydrate or solvate), the melting point was over 280 °C.
In the case of `Cc1nc(N2CCCCC2)c2[nH]c(-c3sc4ccccc4c3C)cc2n1.Cl` (hydrate or solvate), the melting point was over 280 °C.
The molecule `Cc1nc(N2CCCCC2)c2[nH]c(CS(=O)(=O)c3ccc(Cl)cc3)cc2n1.Cl` (hydrate or solvate) yielded a melting point of 199 to 201 °C.
In the case of `COc1ccc(-c2c(C)[nH]c3c(N4CCCCC4)nc(C)nc23)cc1.Cl` (hydrate or solvate), the melting point was 170 °C (dec.).
Molecule `Cc1nc(N2CCCCC2)c2[nH]c(-c3cccnc3)cc2n1.Cl` (hydrate or solvate) displayed a melting point of over 280 °C.
The molecule `Cc1nc(N2CCCCC2)c2[nH]c(-c3cc4ccccc4s3)cc2n1.Cl` (hydrate or solvate) showed a melting point of over 280 °C.
`Cc1ccc2sc(-c3cc4nc(C)nc(N5CCCCC5)c4[nH]3)c(C)c2c1.Cl` (hydrate or solvate) had a melting point of over 280 °C.
As for `Cc1nc(N2CCCCC2)c2[nH]c(C)c(Oc3ccccc3)c2n1.Cl` (hydrate or solvate), the melting point was over 280 °C.
Take `Cc1nc(N2CCCCC2)c2[nH]c(-c3ccc4c(c3)OCO4)c(C)c2n1.Cl` (hydrate or solvate): the melting point lay in the range of 268 to 269 °C.
`Cc1nc2c3c(cc(-c4ccccc4)n3CC3CCCCN23)n1.Cl` (stereo not drawn) (hydrate or solvate): the melting point is over 280 °C.
As for `Cc1nc(N2CCN(S(=O)(=O)c3cccc4ccccc34)CC2)c2[nH]c(-c3ccccc3)cc2n1.Cl` (hydrate or solvate), the melting point was 195 °C (dec.).
For the molecule `CSc1nc(N2CCCCC2)c2[nH]c(-c3ccccc3)cc2n1.Cl` (hydrate or solvate), the melting point is 281 to 283 °C (dec.).
Regarding `Cc1nc(N2CCC2)c2[nH]c(-c3ccccc3)cc2n1.Cl` (hydrate or solvate), the melting point was > 300 °C (dec.).
In the case of `Cc1nc(N2CCCCC2)c2[nH]c(-c3cnccn3)cc2n1.Cl` (hydrate or solvate) it was 280 to 283.5 °C; in that of `Cl.c1cnc(-c2cc3ncnc(N4CCCCC4)c3[nH]2)cn1` (hydrate or solvate), over 280 °C; in that of `Cl.c1ccc2oc(-c3cc4ncnc(N5CCCCC5)c4[nH]3)cc2c1` (hydrate or solvate), 278.5 to 281 °C.
Next, `Cl.c1ccc(-c2[nH]c3c(N4CCCCC4)ncnc3c2-c2ccccc2)cc1` (hydrate or solvate): 266 to 268.5 °C; `Cc1nc(N2CCCCC2)c2[nH]c(-c3ccccc3)c(-c3ccccc3)c2n1.Cl` (hydrate or solvate): 169 to 171 °C.
Next, `Cl.FC(F)(F)c1nc(N2CCCCC2)c2[nH]c(-c3ccccc3)cc2n1` (hydrate or solvate): 235.1 to 237.5 °C (dec.); `Cc1nc(N2CCCCC2)c2[nH]c(-c3cc(C)sc3C)cc2n1.Cl` (hydrate or solvate): 240 to 241.5 °C.
